# Test results from patent US7759459B2, “Fluorescent assays for protein kinases” (Albert Einstein College of Medicine of Yeshiva University, priority 2003, dated 2010).
# Assays:
# PKC in HeLa cells = experiment: Microinjection studies in TPA-stimulated living HeLa cells; type: cell-based; details: co-injected with peptide 2; 20 μM estimated intracellular concentration
# Procedure: Microinjection Studies-Subconfluent, serum-starved (24 hr), HeLa cells were cultured on 22 mm coverslips in DMEM in a humidified atmosphere containing 5% CO2. […] Microinjections were performed with an Eppendorf (Brinkman Instruments, Westbury, N.Y.) 5246 microinjection apparatus mounted on the microscope inside the environmental chamber. The peptide was estimated to be diluted 10-fold upon microinjection, using the equation for volume (V) flow through a capillary tube:
# [formula] where p is the difference in pressure at the ends of the tube (290 hPa), r the radius (0.05 μm) and l the length (10 μm) of the tube, η the viscosity of the injected solution (0.69×10^−2 g/cm-sec), and t the total injection time (0.3 sec). The average volume of a fibroblast was taken as 2 pL.^18 12-O-tetradecanoyl phorbol-13-acetate (TPA) (1 μM) was added to the media following microinjection to stimulate PKC activity. […] Fluorescence intensity measurements were corrected using values from a standard photobleaching curve generated from control experiments with microinjected HeLa cells that had not been treated with TPA. […]
# PKC = details: cited from earlier work
compound,measurement,setting,value
CN(C)CCCn1cc(C2=C(c3c[nH]c4ccccc34)C(=O)NC2=O)c2ccccc21 [GF 109203X],effect of inhibitor on TPA-induced enhancement in cellular fluorescence,PKC in HeLa cells,effectively blocks the TPA-induced enhancement in cellular fluorescence
same,Ki,PKC,low nanomolar range
